The target of the assay is MYT1 protein (Homo sapiens (Human), UniProt Q99640). Briefly: Test for binding to ATP binding site of MYT1 (Kinase Tracer 178 / Eu-Anti-GST antibody TR-FRET). Conditions: ATP binding site of MYT1, 30 minutes at room temperature. The procedure:
The binding capacity of each compound to the ATP binding site of MYT1 Kinase protein was evaluated. 5× Kinase Buffer A (manufactured by Thermo Fisher Scientific Inc., PV3189) was diluted to 5 times with Milli-Q water, thereby preparing 1× Kinase Buffer. Using 1× Kinase Buffer, MYT1 protein (manufactured by Carna Biosciences, Inc.) was diluted to a concentration of 0.005 μM and Eu-Anti-GST Antibody was diluted to a concentration of 1 μM. […] To a 96 well-plate, 2.5 μL of a compound diluted with DMSO was added. […] The mixture was well mixed and then allowed to stand at room temperature for 30 minutes. Thereafter, fluorescence wavelengths of 665 nm and 615 nm generated by irradiation with excitation light of 340 nm were detected using Envision (manufactured by PerkinElmer). The proportion of Tracer bound to MYT1 protein was calculated for every condition by dividing the intensity at the fluorescence wavelength of 665 nm by the intensity at the fluorescence wavelength of 615 nm.
A general note: In TR-FRET formats the signal depends on donor and acceptor labels being close together.

The structures appear in SMILES notation.

Chain of MYT1 protein (Q99640 whole entry): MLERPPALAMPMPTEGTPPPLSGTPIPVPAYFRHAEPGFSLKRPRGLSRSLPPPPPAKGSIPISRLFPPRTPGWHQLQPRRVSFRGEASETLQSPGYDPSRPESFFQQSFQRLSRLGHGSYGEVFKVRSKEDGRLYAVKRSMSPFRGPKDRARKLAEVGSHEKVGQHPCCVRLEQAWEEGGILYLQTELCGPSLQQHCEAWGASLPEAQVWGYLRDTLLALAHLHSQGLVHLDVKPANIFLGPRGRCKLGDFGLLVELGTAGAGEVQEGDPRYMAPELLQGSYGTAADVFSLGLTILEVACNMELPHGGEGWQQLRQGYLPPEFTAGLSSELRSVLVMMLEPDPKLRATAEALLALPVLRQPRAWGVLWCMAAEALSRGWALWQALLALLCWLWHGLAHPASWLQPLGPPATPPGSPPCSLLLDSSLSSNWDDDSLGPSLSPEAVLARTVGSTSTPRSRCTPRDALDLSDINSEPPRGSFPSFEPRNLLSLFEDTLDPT

`Nc1c(-c2c(F)ccc3[nH]ncc23)c2cc(C3CC3)c3ncccc3c2[nH]c1=O` (atropisomer, axis not shown) [Compound C157, (R)-3-amino-6-cyclopropyl-4-(5-fluoro-1H-indazol-4-yl)-1H-1,7-phenanthrolin-2-one]: the IC50 came out at 310 nM.
The result for `Nc1c(-c2c(F)ccc3[nH]ncc23)c2cc(C3CC3)c3ncccc3c2[nH]c1=O` (atropisomer, axis not shown) [Compound C158, (S)-3-amino-6-cyclopropyl-4-(5-fluoro-1H-indazol-4-yl)-1H-1,7-phenanthrolin-2-one] reads 1.9 nM; that for `CC(C)Oc1cc2c(-c3ccc(Cl)c4[nH]ncc34)c(N)c(=O)[nH]c2cc1F` [Compound A1, 3-Amino-4-(7-chloro-1H-indazol-4-yl)-7-fluoro-6-propan-2-yloxy-1H-quinolin-2-one], 29 nM.
For `Nc1c(-c2ccc(Cl)c3[nH]ncc23)c2cc(OCCC(F)F)c(F)cc2[nH]c1=O` [Compound A2, 3-Amino-4-(7-chloro-1H-indazol-4-yl)-6-(3,3-difluoropropoxy)-7-fluoro-1H-quinolin-2-one] the value was 9.3 nM; for `Nc1c(-c2ccc(Cl)c3[nH]ncc23)c2cc(OCC3CC3)c(F)cc2[nH]c1=O` [Compound A3, 3-Amino-4-(7-chloro-1H-indazol-4-yl)-6-(cyclopropylmethoxy)-7-fluoro-1H-quinolin-2-one], 8.5 nM; for `Nc1c(-c2ccc(Cl)c3[nH]ncc23)c2cc(O[C@H]3C[C@H](F)C3)c(F)cc2[nH]c1=O` [Compound A4, 3-Amino-4-(7-chloro-1H-indazol-4-yl)-7-fluoro-6-((1r,3r)-3-fluorocyclobutyl)oxy-1H-quinolin-2-one], 3.8 nM.
For `N#C[C@H]1C[C@H](Oc2cc3c(-c4ccc(Cl)c5[nH]ncc45)c(N)c(=O)[nH]c3cc2F)C1` [Compound A5, (1r,3r)-3-[[3-Amino-4-(7-chloro-1H-indazol-4-yl)-7-fluoro-2-oxo-1H-quinolin-6-yl]oxy]cyclobutane-1-carbonitrile] the value was 1.8 nM.
In turn, `Nc1c(-c2ccc(Cl)c3[nH]ncc23)c2cc(OCCCF)c(F)cc2[nH]c1=O` [Compound A6, 3-Amino-4-(7-chloro-1H-indazol-4-yl)-7-fluoro-6-(3-fluoropropoxy)-1H-quinolin-2-one] gave an IC50 of 3 nM.
Take `Nc1c(-c2ccc(Cl)c3[nH]ncc23)c2cc(OC3CCC3)c(F)cc2[nH]c1=O` [Compound A7, 3-Amino-4-(7-chloro-1H-indazol-4-yl)-6-cyclobutyloxy-7-fluoro-1H-quinolin-2-one]: the IC50 is 4.4 nM.
Consider `CC(C)Oc1cc2c(-c3ccc(Cl)c4[nH]ncc34)c(N)c(=O)[nH]c2cc1Cl` [Compound A8, 3-Amino-7-chloro-4-(7-chloro-1H-indazol-4-yl)-6-propan-2-yloxy-1H-quinolin-2-one], for which the concentration for half-maximal inhibition (IC50) is 23 nM.
The result for `Nc1c(-c2ccc(Cl)c3[nH]ncc23)c2cc(OCCC(F)F)c(Cl)cc2[nH]c1=O` [Compound A9, 3-Amino-7-chloro-4-(7-chloro-1H-indazol-4-yl)-6-(3,3-difluoropropoxy)-1H-quinolin-2-one] reads 3.9 nM; that for `Nc1c(-c2ccc(Cl)c3[nH]ncc23)c2cc(OC3CCC3)c(Cl)cc2[nH]c1=O` [Compound A10, 3-Amino-7-chloro-4-(7-chloro-1H-indazol-4-yl)-6-cyclobutyloxy-1H-quinolin-2-one], 4.3 nM.
For `Nc1c(-c2ccc(Cl)c3[nH]ncc23)c2cc(O[C@H]3C[C@H](F)C3)c(Cl)cc2[nH]c1=O` [Compound A11, 3-Amino-7-chloro-4-(7-chloro-1H-indazol-4-yl)-6-((1r,3r)-3-fluorocyclobutyl)oxy-1H-quinolin-2-one] the value was 3.9 nM; for `Nc1c(-c2ccc(Cl)c3[nH]ncc23)c2cc(OCC3CC3)c(Cl)cc2[nH]c1=O` [Compound A13, 3-Amino-7-chloro-4-(7-chloro-1H-indazol-4-yl)-6-(cyclopropylmethoxy)-1H-quinolin-2-one], 18 nM.
For `Nc1c(-c2ccc(Cl)c3[nH]ncc23)c2cc(OCCCF)c(Cl)cc2[nH]c1=O` [Compound A14, 3-Amino-7-chloro-4-(7-chloro-1H-indazol-4-yl)-6-(3-fluoropropoxy)-1H-quinolin-2-one] the value was 2.1 nM; for `Cc1nc2[nH]c(=O)c(N)c(-c3ccc(Cl)c4[nH]ncc34)c2cc1O[C@H]1C[C@H](F)C1` [Compound A15, 3-Amino-4-(7-chloro-1H-indazol-4-yl)-6-((1r,3r)-3-fluorocyclobutyl)oxy-7-methyl-1H-1,8-naphthyridin-2-one], 13 nM.
Molecule `Cc1nc2[nH]c(=O)c(N)c(-c3ccc(Cl)c4[nH]ncc34)c2cc1O[C@H]1C[C@H](C#N)C1` [Compound A16, (1r,3r)-3-[[6-Amino-5-(7-chloro-1H-indazol-4-yl)-2-methyl-7-oxo-8H-1,8-naphthyridine-3-yl]oxy]cyclobutane-1-carbonitrile] yielded an IC50 of 5 nM.
The molecule `Nc1c(-c2ccc(Cl)c3[nH]ncc23)c2cc(Cl)cc(Br)c2[nH]c1=O` [Compound A17, 3-Amino-8-bromo-6-chloro-4-(7-chloro-1H-indazol-4-yl)-1H-quinolin-2-one] gave an IC50 of 27 nM.
For `C#Cc1cc(Cl)cc2c(-c3ccc(Cl)c4[nH]ncc34)c(N)c(=O)[nH]c12` [Compound A18, 3-Amino-6-chloro-4-(7-chloro-1H-indazol-4-yl)-8-ethynyl-1H-quinolin-2-one] the value was 87 nM.
For `CC(C)c1cc(Cl)cc2c(-c3ccc(Cl)c4[nH]ncc34)c(N)c(=O)[nH]c12` [Compound A19, 3-Amino-6-chloro-4-(7-chloro-1H-indazol-4-yl)-8-propan-2-yl-1H-quinolin-2-one], the IC50 was found to be 600 nM.
Turning to `Nc1c(-c2ccc(Cl)c3[nH]ncc23)c2cc(Cl)cc(Cl)c2[nH]c1=O` [Compound A20, 3-Amino-6,8-dichloro-4-(7-chloro-1H-indazol-4-yl)-1H-quinolin-2-one], the half-maximal inhibitory concentration (IC50) was 12 nM.
The result for `N#Cc1cc(Cl)cc2c(-c3ccc(Cl)c4[nH]ncc34)c(N)c(=O)[nH]c12` [Compound A21, 3-Amino-6-chloro-4-(7-chloro-1H-indazol-4-yl)-2-oxo-1H-quinoline-8-carbonitrile] reads 20 nM; that for `CCCc1cc(Cl)cc2c(-c3ccc(Cl)c4[nH]ncc34)c(N)c(=O)[nH]c12` [Compound A22, 3-Amino-6-chloro-4-(7-chloro-1H-indazol-4-yl)-8-propyl-1H-quinolin-2-one], 270 nM.
`C=Cc1cc(Cl)cc2c(-c3ccc(Cl)c4[nH]ncc34)c(N)c(=O)[nH]c12` [Compound A23, 3-Amino-6-chloro-4-(7-chloro-1H-indazol-4-yl)-8-ethenyl-1H-quinolin-2-one] had an IC50 of 34 nM.
The molecule `Nc1c(-c2ccc(Cl)c3[nH]ncc23)c2cc(Cl)cc(C3CC3)c2[nH]c1=O` [Compound A24, 3-Amino-6-chloro-4-(7-chloro-1H-indazol-4-yl)-8-cyclopropyl-1H-quinolin-2-one] showed an IC50 of 110 nM.
The result for `CCc1cc(Cl)cc2c(-c3ccc(Cl)c4[nH]ncc34)c(N)c(=O)[nH]c12` [Compound A25, 3-Amino-6-chloro-4-(7-chloro-1H-indazol-4-yl)-8-ethyl-1H-quinolin-2-one] reads 45 nM.
For `Cc1cc(Cl)cc2c(-c3ccc(Cl)c4[nH]ncc34)c(N)c(=O)[nH]c12` [Compound A26, 3-Amino-6-chloro-4-(7-chloro-1H-indazol-4-yl)-8-methyl-1H-quinolin-2-one] the value was 11 nM; for `CCc1cc2[nH]c(=O)c(N)c(-c3ccc(Cl)c4[nH]ncc34)c2cc1Cl` [Compound A28, 3-Amino-6-chloro-4-(7-chloro-1H-indazol-4-yl)-7-ethyl-1H-quinolin-2-one], 47 nM; for `N#Cc1cc2[nH]c(=O)c(N)c(-c3ccc(Cl)c4[nH]ncc34)c2cc1Cl` [Compound A29, 3-Amino-6-chloro-4-(7-chloro-1H-indazol-4-yl)-2-oxo-1H-quinoline-7-carbonitrile], 29 nM.
As for `CC(=O)c1ccc2[nH]c(=O)c(N)c(-c3ccc(Cl)c4[nH]ncc34)c2c1` [Compound A31, 6-Acetyl-3-amino-4-(7-chloro-1H-indazol-4-yl)-1H-quinolin-2-one], the IC50 was found to be 7.6 nM.
In turn, `CC(O)c1ccc2[nH]c(=O)c(N)c(-c3ccc(Cl)c4[nH]ncc34)c2c1` (stereo not shown) [Compound A32, 3-Amino-4-(7-chloro-1H-indazol-4-yl)-6-(1-hydroxyethyl)-1H-quinolin-2-one] gave an IC50 of 16 nM.
For `Nc1c(-c2ccc(Cl)c3[nH]ncc23)c2cc(C3CCNCC3)ccc2[nH]c1=O` [Compound A33, 3-Amino-4-(7-chloro-1H-indazol-4-yl)-6-piperidin-4-yl-1H-quinolin-2-one; 2,2,2-trifluoroacetate] the value was 13 nM; for `CC(C)N1CCC(c2ccc3[nH]c(=O)c(N)c(-c4ccc(Cl)c5[nH]ncc45)c3c2)CC1` [Compound A34, 3-Amino-4-(7-chloro-1H-indazol-4-yl)-6-(1-propan-2-ylpiperidin-4-yl)-1H-quinolin-2-one], 26 nM; for `Nc1c(-c2ccc(Cl)c3[nH]ncc23)c2cc(C3CCN(C4CCC4)CC3)ccc2[nH]c1=O` [Compound A35, 3-Amino-4-(7-chloro-1H-indazol-4-yl)-6-(1-cyclobutylpiperidin-4-yl)-1H-quinolin-2-one], 19 nM.

Usually IC50 stands for the concentration that inhibits the measured activity by half. The low end stands for greater potency, the high end for weaker potency.

(Values after US20260062412A1, “NITROGEN-CONTAINING HETEROCYCLIC COMPOUND HAVING MYT1 INHIBITORY ACTIVITY” (CHUGAI SEIYAKU KABUSHIKI KAISHA, priority 2023, published 2026).)
